For one assay, the system named is adult male CD-1 mice. Description: In vivo itch response assay (Compound 48/80-induced scratching). Particulars: for Effect on scratch response: given 20 min before pruritogen Compound 48/80. As for the experimental part: In Vivo Model and Procedures:
An in vivo model was devised and implemented to evaluate the antipruritic activity of compounds in mice. Compound 48/80 (Sigma Chemical), a known pruritogen in mice, was mixed in a 0.9% saline vehicle and administered to various cohorts of adult male CD-1 mice by s.c. injection at the nape of the neck at dosage levels of 12.5, 25, 50 and 100 μg. The saline vehicle alone was used as a control. The mice were monitored visually and scratching bouts were counted over the ensuing 30 minutes.
Next, test benzomorphan Compound #1 (see Examples 1 and 2 above) was given in various doses (Table 3 below) in the rear flank 20 minutes prior to pruritogen injection in the same manner as the Nalfurafine.

In a further assay the target is T1, kappa opioid receptor (Homo sapiens, UniProt P41145).
T1 construct: expressed in transfected cells; host or cells: HEK-293
T1 sequence (P41145 whole entry): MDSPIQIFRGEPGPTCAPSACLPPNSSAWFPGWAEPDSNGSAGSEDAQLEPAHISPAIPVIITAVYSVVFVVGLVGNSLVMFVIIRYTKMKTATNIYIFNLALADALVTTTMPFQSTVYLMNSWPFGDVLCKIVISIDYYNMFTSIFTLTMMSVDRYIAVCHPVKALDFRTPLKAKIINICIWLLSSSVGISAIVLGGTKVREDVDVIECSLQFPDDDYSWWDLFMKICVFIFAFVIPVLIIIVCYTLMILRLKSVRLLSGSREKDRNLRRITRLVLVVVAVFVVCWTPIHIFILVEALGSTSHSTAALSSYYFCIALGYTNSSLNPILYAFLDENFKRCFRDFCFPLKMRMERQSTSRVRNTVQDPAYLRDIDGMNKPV
As to the kind of experiment: κ-opioid receptor [35S]GTPγS functional assay. It is filed as biochemical. Particulars: relative to U69,593; read-out: GTPγS κ Emax [mean ± SEM]. As for the experimental part: Similarly for KOR, the κ GTP Emax (%) is the maximal effect elicited by a compound relative to the effect elicited by the known κ-agonist, U69,593.
κ-Opioid Receptor Functional Assay Procedures:
Functional [^35S]GTPγS binding assays were conducted as follows. Kappa opioid receptor membrane solution was prepared by sequentially adding final concentrations of 0.026 μg/μl kappa membrane protein (in-house), 10 μg/mL saponin, 3 μM GDP and 0.20 nM [^35S]GTPγS to binding buffer (100 mM NaCl, 10 mM MgCl2, 20 mM HEPES, pH 7.4) on ice. The prepared membrane solution (190 μl/well) was transferred to 96-shallow well polypropylene plates containing 10 μl of 20× concentrated stock solutions of agonist prepared in DMSO. Plates were incubated for 30 min at a temperature of about 25° C. with shaking. Reactions were terminated by rapid filtration onto 96-well Unifilter GF/B filter plates (Packard) using a 96-well tissue harvester (Packard) and followed by three filtration washes with 200 μl ice-cold […] (10 mM NaH2PO4, 10 mM Na2HPO4, pH 7.4). Filter plates were subsequently dried at 50° C. for 2-3 hours. Fifty μl/well scintillation cocktail (MicroScint20, Packard) was added and plates were counted in a Packard Top-Count for 1 min/well.

Another assay concerns the target μ-opioid receptor (Homo sapiens, UniProt P35372). Description: μ-opioid receptor [35S]GTPγS functional assay. It counts as biochemical. From the text:
Measures of a compound's activity at a given receptor are given by GTP Emax and GTP EC50. GTP Emax (%) is the maximal effect elicited by a compound relative to the effect elicited by a standard, known agonist compound. GTP EC50 is the concentration of a compound providing 50% of the maximal response for that compound at a given receptor. For MOR, the μ GTP Emax (%) is the maximal effect elicited by a compound relative to the effect elicited by the standard MOR agonist [D-Ala^2, N-methyl-Phe^4 Gly-ol^5]-enkephalin (a/k/a DAMGO). Generally, the μ GTP Emax (%) value measures the efficacy of a compound to treat or prevent pain or diarrhea.
μ-Opioid Receptor Functional Assay Procedures:
[^35S]GTPγS functional assays were conducted using freshly thawed μ-receptor membranes. Assay reactions were prepared by sequentially adding the following reagents to binding buffer (100 mM NaCl, 10 mM MgCl2, 20 mM HEPES, pH 7.4) on ice (final concentrations indicated): membrane protein (0.026 mg/mL), saponin ([…]), GDP ([…]) and [^35S]GTPγS (0.20 nM; NEN). […] BetaScint scintillation cocktail (Wallac, Turku, Finland) was added (50 μl/well) and plates were counted using a Packard Top-Count for 1 min/well. Data were analyzed using the sigmoidal dose-response curve fitting functions in GraphPad PRISM v. […]

This is an account of results in US20140066475A1, “Method For Treating Pruritus” (Euro-Celtique S.A., priority 2012, published 2014).

Structures can show the parent of a compound that is named as a salt. Marks after values point to notes of the source that are not given here.

Chain of μ-opioid receptor (P35372 whole entry, species assumed): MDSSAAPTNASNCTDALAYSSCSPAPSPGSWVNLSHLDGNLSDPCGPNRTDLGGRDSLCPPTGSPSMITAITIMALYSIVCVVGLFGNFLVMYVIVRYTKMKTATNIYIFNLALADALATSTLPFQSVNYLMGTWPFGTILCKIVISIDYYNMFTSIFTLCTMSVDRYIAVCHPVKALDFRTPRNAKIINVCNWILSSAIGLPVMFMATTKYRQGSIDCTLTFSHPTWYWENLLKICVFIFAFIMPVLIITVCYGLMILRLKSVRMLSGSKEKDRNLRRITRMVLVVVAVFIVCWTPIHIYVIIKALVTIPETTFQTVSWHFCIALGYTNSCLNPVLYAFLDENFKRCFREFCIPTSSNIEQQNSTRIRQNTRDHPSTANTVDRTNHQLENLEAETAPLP

On to `CN(C(=O)/C=C/c1ccoc1)[C@@H]1CC[C@@]2(O)[C@H]3Cc4ccc(O)c5c4[C@@]2(CCN3CC2CC2)[C@H]1O5` [Nalfurafine, Nalfurafine HCl, reference compound], for which the “Total # Scratching Bouts in 30 mins (mean ± S.E.M.)” value with adult male CD-1 mice (0.04 mg/kg s.c. 20 min before Compound 48/80 (0.5 mg/kg)) was 25.6 ± 7.92^d. Besides, the “Effect on scratch response” value in the assay on adult male CD-1 mice is recorded as “dose dependent reduction in scratch response”.
For `C=CC[N+]1(C)CCC2(C)c3cc(O)ccc3C[C@@H]1[C@@H]2C.[I-]` (stereo partly drawn) [Compound #1], the “Total # Scratching Bouts in 30 mins (mean ± S.E.M.)” value in the assay with adult male CD-1 mice (3 mg/kg in rear flank 20 min before Compound 48/80 (0.5 mg/kg)) was 155.8 ± 13.73^a; with adult male CD-1 mice (10 mg/kg in rear flank 20 min before Compound 48/80 (0.5 mg/kg)) it was 129.4 ± 16.18^b; with adult male CD-1 mice (30 mg/kg in rear flank 20 min before Compound 48/80 (0.5 mg/kg)), 70.8 ± 19.74^c. Further, the “Effect on scratch response” value in the assay on adult male CD-1 mice is listed as “alleviated pruritus by reducing the mean number of scratching bouts”. For the same molecule, the Emax on kappa opioid receptor came out at 27.3 ± 3.38%; on μ-opioid receptor (relative to DAMGO, read-out: GTPγS μ Emax [mean ± SEM]), 3.67 ± 1.33%. Moreover, the 50% effective concentration (EC50) on μ-opioid receptor was > 20 µM.
